Entries after “also recorded” stand apart in the source; their conditions may differ.
Experiments:
Type in all cases: in vivo
[1] = test system: C57Bl/6 mice; experiment: AGISHA model with AngII as injury inducer (ACR in urine); settings: for ACR in urine collected for 4 hours after AngII bolus injections: vs NaCl control group; for ACR in urine collected for 4 hours after first AngII bolus injections, experimental day 1: vs NaCl group
Source text: Five groups with 10-12 mice per group (C57Bl/6, Charles River Laboratories, 6-7 weeks old) were set for one experiment. After delivery, animals remained in a temperature- and light-controlled room with standardized mouse chow and water ad libitum for a one week acclimatization period, following guidelines of local governmental institutions (LANUV Germany). The groups were divided as follows (see FIG. 1): • 1. Control group without AngII bolus injection, but with control saline and additional (oral) administration of drug vehicle (10% ethanol, 40% solutol, 50% water or saline). • 2. AngII group, treated with AngII in normal saline, and drug vehicle. AngII administration occurred in two bolus injections (i.v.+s.c.) of 10 μg (5 μg i.v.+5 μg s.c.), 16 μg (8 μg i.v.+8 μg s.c.) and 20 μg (10 μg i.v.+10 μg s.c.) per mouse, where the first bolus was injected intravenously and the second bolus subcutaneously. The drug vehicle was administered orally.
3. Candidate groups 3 and 4: AngII injection and additional treatment with the investigated drug/drugs. For substance testing, drugs or appropriated vehicles were administered orally, via i.v., s.c., or i.p. Administration occurred prior to or after AngII-injection. For example, investigated drug/drugs were given orally 30 minutes before the induction of the injury. • 4. Group 5 is the positive control group Animals were injected with AngII and treated orally with Losartan 30 mg/kg. Losartan is an AngII receptor blocker AT1 (Pieter B M et al, Pharma. Rev., 1993, Kang P M et al, Progress in Cardiology, 1994).
After AngII injection animals were placed in metabolic cages (Technoplast, Italy) for urine collection for up to 4 hours. At the end of the experiment the urine was analyzed to quantify the ACR. More specifically, the collected urine was analyzed using an automatic analyzer for urinary albumin as well as urinary creatinine (Coban® Integra 400, Roche, Basel, SUI) or using the Mouse albumin ELISA kit (ABCAM, Cambridge, UK). […] The AGISHA model was performed in 3 identical cycles with a one-week break for recovery.
Negative and positive control experiment. To confirm the findings shown in FIG. 2-4, the mode of action in AGISHA was investigated. In the following experiment, three of the animal groups were pre-treated with three different drugs by oral application 30 minutes before administration of injury inducer (see FIG. 5). • 1) Enalapril 10 mg/kg, an angiotensin-converting enzyme (ACE) inhibitor, is standard of care for high blood pressure. It was used as positive modulator control 1 of the renin-angiotensin system (RAS) in the AGISHA model. • 2) Losartan potassium, 30 mg/kg, angiotensin II type I receptor (AT1) antagonist, standard of care for high blood pressure (Kang et al, 1994; Sica D A et al, Clin Parmacokinet., 2005) was used as positive modulator control 2 of the RAS system in the AGISHA model. • 3) Tivozanib, 3 mg/kg, vascular endothelial grow factor receptor tyrosine kinase inhibitor (Campas C et al, Drugs Fut., 2009) was used as negative modulator of the RAS system during AGISHA model. […]
The experiment was performed as described in example 5, except that the sGC stimulator 5-cyclopropyl-2-[1-(2-fluorobenzyl)-1H-pyrazolo[3,4-b]pyridin-3-yl]pyrimidin-4-amine was used for treatment. […] Losartan (30 mg/kg) was used as positive control.

[2] = test system: mice; experiment: GFR-based model with AVP and Sinestrin-FITC; settings: pre-treatment with Losartan 30 mg/kg; AVP 35 μg
Description: A similar setup (FIG. 23) was used with AVP (Sigma-Aldrich, Mo.) at a dose of 35 μg, i.e. using a first bolus with 15 μg AVP, injected i.v. in combination with Sinestrin-FITC 150 mg/kg (50 ul+50 ul) and using a second bolus of 20 μg AVP, 100 uL, injected i.v. As before GFR, was decreased by AVP compared with the control group.

[3] = test system: mice; experiment: GFR-based model with AngII and Sinestrin-FITC (GFR acute modulation); settings: for GFR 2 hrs after AngII bolus injection: vs control group
Source text: Acute GFR modulation is a relevant phenomenon in the field of nephrology (Fergusan and […], Clin. Chem., 58(4), 2012, p. 680-689). GFR is the major readout parameter for chronic kidney disease (CKD) stage assessment (Lopez-Giacoman and Madero, World J Nephrol. 4(1), 2015, 57-73). The GFR is also a very stable and robust physiological parameter that is subject to positive and negative feedback regulation. The following protocol and experimental setup (FIG. 21) was established to model acute GFR modulation. 1. Control group without AngII bolus injection, but with control saline (0.9%)+[…] 150 mg/kg and additional s c administration of 0.9% NaCl (100 μl+100 μl) 2. AngII group, treated with AngII in two bolus injections: First bolus of 20 μg/mouse of AngII in normal saline administered in combination with […] 150 mg/kg, 50 μl+50 μl, injected via tail vein. Second bolus injected s.c. comprising 20 μg AngII, 100 μl. 3. Losartan group was treated orally with 30 mg/kg of Losartan Potassium, 30 min prior to the AngII injury. AngII injury occurred in two bolus injections as described for the AngII group (total 40 μg). 1. Control group without AngII bolus injection, but with control saline (0.9%)+[…] 150 mg/kg and additional s.c. administration of 0.9% NaCl (100 μl+100 μl) 2. AngII group, treated with AngII in two bolus injections: First bolus of 20 μg/mouse of AngII in normal saline administered in combination with […] 150 mg/kg, 50 μl+50 μl, injected via tail vein. Second bolus injected s.c. comprising 30 μg AngII, 100 μl. 3. Losartan group was treated orally with 30 mg/kg of Losartan Potassium, 30 min prior to the AngII injury. AngII injury occurred in two bolus injections as described for the AngII group (total 50 μg). For substance testing, animals were pre-treated with the respective drugs or vehicles 30 min before AngII-injection, via oral gavage, s.c, i.p., or tail vein injection. Subsequently, […] mix bolus was administered to the animals with the tracer (FIG. 21).

[4] = test system: C57Bl/6/J male mice; experiment: GFBI test model with AngII (transcutaneous fluorescence of Ficoll-FITC); settings: for Half-life of the fluorescent molecule in the blood 2 h after AngII bolus injection: vs control
Description: After delivery, C57Bl/6/J male mice remained in a temperature- and light-controlled room with standardized mouse chow and water ad libitum for a one week acclimatization period, following guidelines of local governmental institutions (LANUV Germany). C57Bl/6/J mice (6-7 weeks) received an intravenous mixture of FITC-FICOLL 70 kDa (Sigma) and 10 μg AngII mix 100 μL, followed by a 10 μg (100 μL) subcutaneous AngII bolus as described in example 1. The groups were divided as follows, see FIG. 17:
1. Control group without AngII bolus injection, but with control saline 0.9%+Ficoll-FITC 150 mg/kg and additional s c administration of a bolus of NaCl 0.9%.
2. AngII group, treated with AngII in two bolus injections (10 μg/mouse of AngII+Ficoll-FITC, 150 mg/kg, both dissolved in 0.9% NaCl, first bolus injected i.v. via tail vein (5 μg AngII) and a second subcutaneous bolus injection (5 μg AngII).
3. AngII group, treated with AngII in two bolus injections (20 μg/mouse total AngII+Ficoll-FITC, 150 mg/kg 150 mg/kg, both dissolved in 0.9% NaCl, first bolus injected i.v. via tail vein (10 μg AngII) and a second subcutaneous bolus injection (10 μg AngII).
TF of the FICOLL-FITC was detected via the transcutaneous method developed by MediBeacon Inc. (MediBeacon Inc., Mo., USA). In brief: all experimental animals were shaved with standard mask anesthesia 1 h before the determination of TF for the FICOLL-FITC Immediately after the injury induction the portable transcutaneous measurement device was placed on the left dorsal back side of the animal for 2 hours. The results were analyzed with the MediBeacon Inc. software. […] The decay of the Ficoll-FITC dye was visualized as a flat line, with a half-life of ca. 396 minutes.

[5] = oral 30 minutes before AngII 10 μg i.v.+10 μg s.c., Enalapril 10 mg/kg, Losartan potassium 30 mg/kg, Tivozanib 3 mg/kg, FIG. 6
[6] = pre-treatment orally, AngII 10 μg i.v.+10 μg s.c., OGT 2115 40 mg/kg, Losartan Potassium 30 mg/kg, FIG. 10

## O=C(O)CCCCN(CCc1cc(F)ccc1OCc1ccc(-c2ccc(C(F)(F)F)cc2)cc1)Cc1ccc(C(=O)O)cc1 [4-({(4-carboxybutyl)[2-(5-fluoro-2-{[4′-(trifluoromethyl)biphenyl-4-yl]methoxy}phenyl)ethyl]amino}methyl)benzoic acid]
[1]; 3 mg/kg orally prior to AngII 10 μg i.v.+10 μg s.c.
  Reduction of ACR compared with the control group: 71%
[1]; 3 mg/kg orally prior to AngII 10 μg i.v.+10 μg s.c., urine 4 hours
  AngII induced ACR, mean±SD: 35 ± 26 µg/mg

## CCOC(=O)[C@H](CCc1ccccc1)N[C@@H](C)C(=O)N1CCC[C@H]1C(=O)O [Enalapril]
[1]; [5]
  Effect on ACR induced by AngII: significantly reduced

## CCCCc1nc(Cl)c(CO)n1Cc1ccc(-c2ccccc2-c2nn[nH]n2)cc1 [Losartan]
[2]
  Effect on AVP induced loss of GFR: did not restore the normal GFR; also recorded: did not restore or prevent the AVP induced loss of GFR
[3]; Losartan Potassium 30 mg/kg orally 30 min prior to AngII total 40 μg
  Effect on AngII induced loss of GFR: AngII bolus had no effect on the GFR; also recorded: able to completely reverse the effect
[3]; Losartan Potassium 30 mg/kg orally 30 min prior to AngII total 50 μg
  Effect on AngII induced loss of GFR: restored the GFR; also recorded: significant recovery of AngII induced loss of GFR
[1]; Losartan 30 mg/kg orally, positive control, AngII 10 μg i.v.+10 μg s.c.
  Reduction of AngII induced ACR: around 90%
[1]; Losartan 30 mg/kg orally, FIG. 2 experiment
  Effect on AngII-induced ACR induction: AngII bolus had no effect on ACR; also recorded: prevents AngII-induced ACR induction
[1]; [5]
  Effect on ACR induced by AngII: highly significant reduction of AngII induced injury
[1]; oral 30 minutes before AngII 10 μg i.v.+10 μg s.c., Enalapril 10 mg/kg, Losartan potassium 30 mg/kg, Tivozanib 3 mg/kg, FIG. 6, listed as Losartan potassium
  Effect on ACR induced by AngII: strongest effect
[1]; [6]
  Effect on ACR induced by AngII: highly significant reduction of AngII induced injury

## O=C(O)Cc1ccc2oc(-c3ccc(NC(=O)/C=C/c4ccc(Br)cc4)c(F)c3)nc2c1 [OGT2115]
[1]; [6]
  Effect on ACR induced by AngII: significantly reduced

## COc1cc2nccc(Oc3ccc(NC(=O)Nc4cc(C)on4)c(Cl)c3)c2cc1OC [Tivozanib]
[1]; [5]
  Effect on ACR induced by AngII: no effect on ACR induced by AngII

## Asp-Arg-Val-Tyr-Ile-His-Pro-Phe (DRVYIHPF; printed: Asp-Arg-Val-Tyr-Ile-His-Pro-Phe) [AngII, human angiotensin II peptide hormone, used as renal injury inducer]
[3]; total 40 μg AngII (20 μg i.v.+20 μg s.c.)
  GFR 2 hrs after AngII bolus injection: decreased but not significantly decreased; also recorded: decrease in GFR
[3]; total 50 μg AngII (20 μg i.v.+30 μg s.c.)
  GFR 2 hrs after AngII bolus injection: highly significant reduction of the GFR; also recorded: significantly reduced
[1]; AngII 8 μg i.v.+8 μg s.c.
  ACR in urine collected for 4 hours after AngII bolus injections: significant induction of ACR
[1]; AngII 10 μg i.v.+10 μg s.c.
  ACR in urine collected for 4 hours after AngII bolus injections: significant induction of ACR; also recorded: significant increase of ACR
[1]; cross AGISHA, AngII 5 μg dose (group 1) and 10 μg dose (group 2)
  ACR on third experimental day after changed order of stimuli: dose dependent increase of injury
[1]; cross AGISHA, AngII 5 μg i.v.+5 μg s.c.
  ACR in urine collected for 4 hours after first AngII bolus injections, experimental day 1: significantly increased
[1]; cross AGISHA, AngII 10 μg i.v.+10 μg s.c.
  ACR in urine collected for 4 hours after first AngII bolus injections, experimental day 1: significantly increased
[1]; cross AGISHA, after AngII 5 μg or 10 μg dose
  ACR on day 2, 24 hours after first induction of acute glomerular injury: For none of the groups the analysis shows a detectable ACR
[4]; AngII 10 μg
  Half-life of the fluorescent molecule in the blood 2 h after AngII bolus injection: decrease in half-life of the fluorescent molecule was significant
[4]; AngII 20 μg
  Half-life of the fluorescent molecule in the blood 2 h after AngII bolus injection: decrease in half-life of the fluorescent molecule was significant
[4]; animals treated with AngII, control (0.9% NaCl) ca. 396 minutes
  Half-life of FICOLL-FITC transcutaneous fluorescence, representative curve: ca. 180 min
